Assay [1] has as its target Cyclin-dependent kinase 11B (Homo sapiens) (UniProt P21127). Description: Inhibition of CDK11 (unknown origin) at 1 uM by Ambit Kinomescan binding assay relative to control.
The target in assay [2] is Mitogen-activated protein kinase kinase kinase 19 (Homo sapiens) (UniProt Q56UN5). In words: Inhibition of YSK4 (unknown origin) at 1 uM by Ambit Kinomescan binding assay relative to control; values are per cent of control.
The target in assay [3] is Serine/threonine-protein kinase MARK1 (Homo sapiens) (UniProt Q9P0L2). Description: Inhibition of MARK1 Lys2 labeling site in human A-375 cells at 5 uM by KiNativ Profiling analysis relative to control. The format is cell-based.
Sequence of Serine/threonine-protein kinase MARK1 (Homo sapiens) (Q9P0L2 whole entry, looked up): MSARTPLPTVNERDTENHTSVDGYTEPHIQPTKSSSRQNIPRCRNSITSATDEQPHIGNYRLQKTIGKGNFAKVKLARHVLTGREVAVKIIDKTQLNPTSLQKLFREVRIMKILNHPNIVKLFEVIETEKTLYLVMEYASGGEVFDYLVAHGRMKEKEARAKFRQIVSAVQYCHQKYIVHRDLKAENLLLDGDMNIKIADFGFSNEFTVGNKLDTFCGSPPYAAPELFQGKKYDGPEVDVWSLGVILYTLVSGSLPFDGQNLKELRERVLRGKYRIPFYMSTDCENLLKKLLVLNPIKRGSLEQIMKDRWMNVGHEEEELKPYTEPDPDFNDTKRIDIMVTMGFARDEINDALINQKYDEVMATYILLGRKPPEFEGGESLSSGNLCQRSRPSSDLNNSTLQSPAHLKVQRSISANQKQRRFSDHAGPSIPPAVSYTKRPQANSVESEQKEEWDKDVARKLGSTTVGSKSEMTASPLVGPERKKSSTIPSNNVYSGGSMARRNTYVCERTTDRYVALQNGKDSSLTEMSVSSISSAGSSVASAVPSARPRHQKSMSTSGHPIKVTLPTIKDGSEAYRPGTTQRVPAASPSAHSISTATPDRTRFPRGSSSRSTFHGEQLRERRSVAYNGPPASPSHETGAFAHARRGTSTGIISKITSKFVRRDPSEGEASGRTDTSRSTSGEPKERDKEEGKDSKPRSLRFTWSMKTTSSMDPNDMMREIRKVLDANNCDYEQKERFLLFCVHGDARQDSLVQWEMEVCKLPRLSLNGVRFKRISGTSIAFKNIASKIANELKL
Assay [4] has as its system Epidermal growth factor receptor (Homo sapiens), P00533 [UNDEFINED MUTATION]. To be noted: dose 10.0 µM.
The target in assay [5] is Calcium/calmodulin-dependent protein kinase kinase 2 (Homo sapiens) (UniProt Q96RR4). Description: Inhibition of CAMKK2 (unknown origin) at 10 uM by Ambit Kinomescan binding assay relative to control.
Sequence of Calcium/calmodulin-dependent protein kinase kinase 2 (Homo sapiens) (Q96RR4 2-588 limits assumed): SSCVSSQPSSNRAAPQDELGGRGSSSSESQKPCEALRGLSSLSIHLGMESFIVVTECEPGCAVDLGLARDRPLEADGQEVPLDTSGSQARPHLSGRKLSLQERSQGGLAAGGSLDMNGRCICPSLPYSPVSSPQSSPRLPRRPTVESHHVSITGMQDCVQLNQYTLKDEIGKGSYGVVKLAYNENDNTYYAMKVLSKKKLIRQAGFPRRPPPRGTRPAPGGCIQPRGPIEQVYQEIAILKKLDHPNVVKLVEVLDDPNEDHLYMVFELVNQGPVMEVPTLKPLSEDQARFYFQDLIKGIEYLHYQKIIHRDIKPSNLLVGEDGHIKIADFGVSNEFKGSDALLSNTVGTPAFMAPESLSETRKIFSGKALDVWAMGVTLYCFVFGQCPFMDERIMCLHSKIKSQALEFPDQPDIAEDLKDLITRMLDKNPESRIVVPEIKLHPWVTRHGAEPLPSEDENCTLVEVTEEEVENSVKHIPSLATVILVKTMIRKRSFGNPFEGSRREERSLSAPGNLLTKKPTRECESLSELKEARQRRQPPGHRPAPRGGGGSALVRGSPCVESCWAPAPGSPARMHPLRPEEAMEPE
Assay [6] deals with T1, Mitogen-activated protein kinase kinase kinase 2 (Homo sapiens) (UniProt Q9Y2U5).
T1 sequence (whole entry): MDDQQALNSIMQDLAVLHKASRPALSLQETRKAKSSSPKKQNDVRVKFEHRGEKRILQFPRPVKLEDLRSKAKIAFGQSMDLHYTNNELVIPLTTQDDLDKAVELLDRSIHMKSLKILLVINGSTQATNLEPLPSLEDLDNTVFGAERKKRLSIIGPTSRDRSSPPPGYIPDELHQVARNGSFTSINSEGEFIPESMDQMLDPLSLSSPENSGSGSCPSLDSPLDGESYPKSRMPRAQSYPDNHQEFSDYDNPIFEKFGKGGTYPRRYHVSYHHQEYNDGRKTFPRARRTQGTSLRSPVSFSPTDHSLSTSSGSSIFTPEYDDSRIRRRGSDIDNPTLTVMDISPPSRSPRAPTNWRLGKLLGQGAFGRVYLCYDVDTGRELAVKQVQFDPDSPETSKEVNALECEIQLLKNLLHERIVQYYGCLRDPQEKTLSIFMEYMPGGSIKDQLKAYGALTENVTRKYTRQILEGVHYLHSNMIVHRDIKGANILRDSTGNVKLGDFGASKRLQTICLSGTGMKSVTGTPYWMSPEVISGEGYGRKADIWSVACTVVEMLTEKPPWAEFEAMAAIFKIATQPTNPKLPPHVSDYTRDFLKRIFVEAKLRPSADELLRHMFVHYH
In words: Inhibition of MAP3K2 Lys1 labeling site harbouring ELAVKQVQFDPDSPETSKEVNALECEIQLLK in human A-375 cells at 0.5 uM by KiNativ Profiling analysis relative to control. The format is cell-based.

The target in assay [7] is T2, Dual specificity mitogen-activated protein kinase kinase 4 (Homo sapiens) (UniProt P45985).
T2 sequence (whole entry): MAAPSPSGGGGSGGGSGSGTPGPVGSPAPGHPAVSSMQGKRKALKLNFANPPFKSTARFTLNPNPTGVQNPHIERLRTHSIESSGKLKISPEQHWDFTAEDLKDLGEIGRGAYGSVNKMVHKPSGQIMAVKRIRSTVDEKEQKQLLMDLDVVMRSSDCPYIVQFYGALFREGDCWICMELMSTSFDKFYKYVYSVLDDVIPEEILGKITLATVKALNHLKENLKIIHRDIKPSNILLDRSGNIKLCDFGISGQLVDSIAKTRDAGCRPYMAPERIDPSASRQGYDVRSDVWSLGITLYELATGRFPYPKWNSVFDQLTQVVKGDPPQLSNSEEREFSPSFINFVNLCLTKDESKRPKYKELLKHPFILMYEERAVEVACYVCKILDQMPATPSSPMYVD
Description: Inhibition of MAP2K4 Lys2 labeling site in human A-375 cells at 0.05 uM by KiNativ Profiling analysis relative to control. The format is cell-based.

The target in assay [8] is Ephrin type-B receptor 3 (Homo sapiens) (UniProt P54753). Description: Inhibition of EPHB3 (unknown origin) at 10 uM by Ambit Kinomescan binding assay.
Assay [9] concerns the target T3, Aurora kinase A (Homo sapiens) (UniProt O14965).
T3 sequence (whole entry): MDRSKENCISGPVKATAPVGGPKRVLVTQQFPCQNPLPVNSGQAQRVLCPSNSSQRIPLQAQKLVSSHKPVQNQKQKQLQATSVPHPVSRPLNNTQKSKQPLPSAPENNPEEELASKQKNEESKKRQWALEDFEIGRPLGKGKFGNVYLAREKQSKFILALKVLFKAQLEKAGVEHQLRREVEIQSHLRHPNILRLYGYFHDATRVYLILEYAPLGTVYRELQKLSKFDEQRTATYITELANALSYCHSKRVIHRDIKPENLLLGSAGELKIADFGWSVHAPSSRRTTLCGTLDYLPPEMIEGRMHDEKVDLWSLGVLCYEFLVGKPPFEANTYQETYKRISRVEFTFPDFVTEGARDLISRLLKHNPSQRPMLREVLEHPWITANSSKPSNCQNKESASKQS
Description: Inhibition of AurA K2 labeling site harbouring DIKPENLLLGSAGELK in human Huh-7 cells at 1 uM by KiNativ Profiling analysis relative to control. The format is cell-based.

Assay [10] addresses Serine/threonine-protein kinase Nek6 (Homo sapiens) (UniProt Q9HC98). Description: Inhibition of NEK6 ACT labeling site in human Huh-7 cells at 1 uM by KiNativ Profiling analysis relative to control. The format is cell-based.
For assay [11], the target named is Cyclin-dependent kinase 13 (Homo sapiens) (UniProt Q14004). In words: Inhibition of CHED K2 labeling site in human Huh-7 cells at 1 uM by KiNativ Profiling analysis relative to control. The format is cell-based.
Sequence of Cyclin-dependent kinase 13 (Homo sapiens) (Q14004 whole entry, looked up): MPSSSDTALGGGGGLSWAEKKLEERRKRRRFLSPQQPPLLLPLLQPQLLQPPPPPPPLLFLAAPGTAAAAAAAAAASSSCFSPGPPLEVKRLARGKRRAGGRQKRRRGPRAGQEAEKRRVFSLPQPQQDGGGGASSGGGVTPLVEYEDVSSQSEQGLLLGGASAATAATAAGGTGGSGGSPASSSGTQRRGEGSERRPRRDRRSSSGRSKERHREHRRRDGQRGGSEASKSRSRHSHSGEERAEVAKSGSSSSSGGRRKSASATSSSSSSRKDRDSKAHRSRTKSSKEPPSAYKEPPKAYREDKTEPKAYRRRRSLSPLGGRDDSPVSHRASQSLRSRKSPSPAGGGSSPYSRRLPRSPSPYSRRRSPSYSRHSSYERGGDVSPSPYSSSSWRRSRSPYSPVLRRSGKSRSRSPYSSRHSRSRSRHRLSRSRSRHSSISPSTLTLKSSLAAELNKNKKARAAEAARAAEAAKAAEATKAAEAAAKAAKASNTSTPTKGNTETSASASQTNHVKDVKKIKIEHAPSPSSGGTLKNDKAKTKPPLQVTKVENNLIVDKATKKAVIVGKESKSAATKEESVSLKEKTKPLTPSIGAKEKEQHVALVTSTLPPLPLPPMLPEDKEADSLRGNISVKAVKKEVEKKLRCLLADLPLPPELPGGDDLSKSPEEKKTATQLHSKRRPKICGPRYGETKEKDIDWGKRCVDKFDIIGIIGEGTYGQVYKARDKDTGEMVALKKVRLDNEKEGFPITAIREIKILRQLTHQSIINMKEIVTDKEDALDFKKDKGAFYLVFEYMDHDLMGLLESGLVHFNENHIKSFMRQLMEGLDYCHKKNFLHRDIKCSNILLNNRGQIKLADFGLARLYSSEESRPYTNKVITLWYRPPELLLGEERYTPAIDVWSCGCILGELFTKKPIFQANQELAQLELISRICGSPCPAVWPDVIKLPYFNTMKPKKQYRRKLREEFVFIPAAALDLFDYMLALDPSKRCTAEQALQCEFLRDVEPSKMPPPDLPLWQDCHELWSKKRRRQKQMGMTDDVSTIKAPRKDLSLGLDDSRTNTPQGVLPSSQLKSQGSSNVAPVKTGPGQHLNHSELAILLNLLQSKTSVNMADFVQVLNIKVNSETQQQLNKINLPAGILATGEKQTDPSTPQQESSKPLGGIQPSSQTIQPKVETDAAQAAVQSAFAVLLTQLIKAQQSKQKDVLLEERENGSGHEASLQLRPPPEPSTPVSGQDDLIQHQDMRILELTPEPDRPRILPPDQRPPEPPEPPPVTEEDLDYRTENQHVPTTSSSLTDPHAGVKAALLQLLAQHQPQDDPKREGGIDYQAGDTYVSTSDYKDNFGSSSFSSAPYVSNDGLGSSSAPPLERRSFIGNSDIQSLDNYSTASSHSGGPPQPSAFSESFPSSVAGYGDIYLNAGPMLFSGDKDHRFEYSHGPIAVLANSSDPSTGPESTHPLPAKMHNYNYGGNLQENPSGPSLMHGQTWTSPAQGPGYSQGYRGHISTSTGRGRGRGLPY
In assay [12] the target is Cyclin-dependent kinase 17 (Homo sapiens) (UniProt Q00537). Description: Inhibition of PCTAIRE2 Lys2 labeling site in human Huh-7 cell lysate at 1 uM by KiNativ Profiling analysis relative to control. The format is subcellular.
Sequence of Cyclin-dependent kinase 17 (Homo sapiens) (Q00537 whole entry, looked up): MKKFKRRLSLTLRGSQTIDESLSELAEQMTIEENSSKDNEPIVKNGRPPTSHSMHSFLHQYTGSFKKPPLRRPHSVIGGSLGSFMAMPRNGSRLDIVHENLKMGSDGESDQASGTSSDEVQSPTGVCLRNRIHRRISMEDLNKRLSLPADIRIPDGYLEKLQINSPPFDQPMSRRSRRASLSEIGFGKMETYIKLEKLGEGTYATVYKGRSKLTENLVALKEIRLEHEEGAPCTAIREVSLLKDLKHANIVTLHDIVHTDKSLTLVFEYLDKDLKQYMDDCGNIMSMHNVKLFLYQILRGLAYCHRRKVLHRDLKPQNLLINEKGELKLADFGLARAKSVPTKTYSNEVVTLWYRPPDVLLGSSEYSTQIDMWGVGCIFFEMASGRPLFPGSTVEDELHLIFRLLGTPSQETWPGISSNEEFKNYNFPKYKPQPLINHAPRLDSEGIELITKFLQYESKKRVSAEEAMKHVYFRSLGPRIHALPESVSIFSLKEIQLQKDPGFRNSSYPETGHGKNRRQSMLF
Assay [13] concerns the target Mitogen-activated protein kinase kinase kinase 1 (Homo sapiens) (UniProt Q13233). In words: Inhibition of MAP3K1 Lys2 labeling site in human Huh-7 cell lysate at 1 uM by KiNativ Profiling analysis relative to control. The format is subcellular.
For assay [14], the target named is Cyclin-dependent kinase 8 (Homo sapiens) (UniProt P49336). In words: Inhibition of CDK8 Lys2 labeling site in human Huh-7 cell lysate at 1 uM by KiNativ Profiling analysis relative to control. The format is subcellular.
Sequence of Cyclin-dependent kinase 8 (Homo sapiens) (P49336 whole entry): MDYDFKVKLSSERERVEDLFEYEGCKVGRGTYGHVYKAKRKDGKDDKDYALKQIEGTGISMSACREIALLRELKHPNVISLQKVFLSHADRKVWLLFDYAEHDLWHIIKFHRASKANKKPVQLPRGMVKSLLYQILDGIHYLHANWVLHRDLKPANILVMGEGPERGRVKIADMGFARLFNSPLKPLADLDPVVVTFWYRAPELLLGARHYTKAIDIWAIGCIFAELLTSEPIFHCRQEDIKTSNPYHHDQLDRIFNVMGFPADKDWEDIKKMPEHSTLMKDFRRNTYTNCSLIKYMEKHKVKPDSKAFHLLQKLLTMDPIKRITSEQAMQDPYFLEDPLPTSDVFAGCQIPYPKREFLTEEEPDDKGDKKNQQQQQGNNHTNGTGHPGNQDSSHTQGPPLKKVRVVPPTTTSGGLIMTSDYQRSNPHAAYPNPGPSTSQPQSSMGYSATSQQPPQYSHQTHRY

The source made the active and inactive calls. No cut-off for these calls is given here.

Sequence of Serine/threonine-protein kinase Nek6 (Homo sapiens) (Q9HC98 whole entry): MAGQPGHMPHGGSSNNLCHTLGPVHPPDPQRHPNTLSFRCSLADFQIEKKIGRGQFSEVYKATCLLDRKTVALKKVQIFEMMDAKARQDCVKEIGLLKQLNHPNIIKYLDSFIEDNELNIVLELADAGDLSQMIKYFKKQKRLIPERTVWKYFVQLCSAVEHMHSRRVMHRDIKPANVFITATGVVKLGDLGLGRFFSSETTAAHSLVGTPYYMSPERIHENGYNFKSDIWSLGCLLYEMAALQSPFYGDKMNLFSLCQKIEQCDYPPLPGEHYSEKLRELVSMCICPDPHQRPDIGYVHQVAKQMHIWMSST
Sequence of Cyclin-dependent kinase 11B (Homo sapiens) (P21127 whole entry): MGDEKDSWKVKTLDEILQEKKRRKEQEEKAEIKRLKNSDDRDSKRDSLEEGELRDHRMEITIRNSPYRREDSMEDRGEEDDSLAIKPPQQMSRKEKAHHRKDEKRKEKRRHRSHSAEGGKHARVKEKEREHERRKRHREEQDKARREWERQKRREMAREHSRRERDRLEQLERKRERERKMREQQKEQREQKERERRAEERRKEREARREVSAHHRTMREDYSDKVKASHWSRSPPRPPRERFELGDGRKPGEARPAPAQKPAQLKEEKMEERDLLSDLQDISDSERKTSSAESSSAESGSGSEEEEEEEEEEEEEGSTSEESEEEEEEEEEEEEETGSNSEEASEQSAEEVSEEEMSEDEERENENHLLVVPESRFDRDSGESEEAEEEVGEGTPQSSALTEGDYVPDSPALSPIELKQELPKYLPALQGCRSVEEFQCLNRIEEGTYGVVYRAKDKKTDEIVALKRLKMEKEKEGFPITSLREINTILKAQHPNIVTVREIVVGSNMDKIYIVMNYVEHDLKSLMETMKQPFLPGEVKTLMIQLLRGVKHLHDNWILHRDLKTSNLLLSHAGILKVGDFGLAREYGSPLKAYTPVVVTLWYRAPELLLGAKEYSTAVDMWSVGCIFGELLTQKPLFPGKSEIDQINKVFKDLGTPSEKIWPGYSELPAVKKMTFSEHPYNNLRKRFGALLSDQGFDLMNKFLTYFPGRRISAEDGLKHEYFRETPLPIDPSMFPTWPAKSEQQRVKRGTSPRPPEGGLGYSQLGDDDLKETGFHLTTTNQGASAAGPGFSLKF

By inhibition is commonly meant the relative decrease from the control value, in per cent. Turning to `CCN1CCN(Cc2ccc(NC(=O)c3ccc(C)c(/C=C/c4cnc5[nH]ccc5c4OC)c3)cc2C(F)(F)F)CC1`, the results for the inhibition in [1] and in assay [3] were 27% and 13%, respectively. For the same compound, the percent of control in assay [2] was found to be 1.1%.
On to `CCN1CCN(Cc2ccc(NC(=O)c3ccc(C)c(Oc4ccnc5[nH]ccc45)c3)cc2C(F)(F)F)CC1`, for which the inhibition was 1.2% in assay [4]; 28% in [5]; 16.9% in assay [6]; -3.4% in assay [7]; 0.9% in assay [9]; 15.5% in [10]. Also, the inhibition entry in assay [8] and in assay [11] was “inactive” in each case.
Turning to `CNc1cc(Oc2cc(C(=O)Nc3cc(N4CCN(C)CC4)cc(C(F)(F)F)c3)ccc2C)ncn1`, the inhibition was -2.1% in assay [12], -2.3% in assay [13] and -8.6% in [14].

The values are drawn from ChEMBL document CHEMBL5696442, “Discovery of type II inhibitors of TGFβ-activated kinase 1 (TAK1) and mitogen-activated protein kinase kinase kinase kinase 2 (MAP4K2)” (J Med Chem, 2015).
